We go through one substance from patent US6869929B2, “Use of transcription factors for treating inflammation and other diseases” (Beth Israel Deaconess Medical Center, priority 2000, dated 2005).

Assay type in all cases: cell-based, human
Experiment [1] has as its system COL2A1 promoter. As to the kind of experiment: COL2A1 promoter/intron deletion constructs, transient transfection in C-28/I2 cells. The conditions noted are these: all five constructs -577, -530, -403, -131, -83/+127 bp, 18 h. The protocol:
The COL2A1 sequence spanning −577 to +3428 bp (Goldring M B, et al, J Cell Biochem 1994;54:85-99, 39) was cloned into the pGL2-basic (pGL2B) luciferase reporter gene vector (Promega,) and named pGL2-COL2/4.0. Deletion constructs containing −577/+125 bp, −131/+125 bp, −87/+125 bp were prepared by enzyme digestion of pGL2-COL2/4.0 using PstI, ApaI, and PuuII, followed by ligation. For the deletion constructs −45/+125 bp, −83/+7 bp, and −45/+7 bp, PCR products were generated as described (Osaki et al.) and cloned into the pGL2-Basic luciferase vector. These reporter constructs were used as templates to generate point mutations or internal deletions by PCR mutagenesis employing the oligonucleotides listed in FIG. 16 and the QuikChange™ Site-Directed Mutagenesis Kit (Stratagene, La Jolla, Calif.). DNA fragments containing point mutations were then cloned into the pGL2B vector and confirmed by DNA sequencing using a G2 primer on pGL2 DNA. Deletions were also made in the −577/+127 bp COL2A1 promoter construct using the ExSite™ PCR-Based Site-Directed Mutagenesis Kit (Stratagene).
Transient transfection experiments were carried out in C-28/I2 cells using LipofectAMINE PLUS™ Reagent (Life Technologies). Cells were seeded in 6-well tissue culture plates at 3.5×10^5 cells/well in DMEM/F12 containing 10% FCS 24 h prior to transfection. For each well, 1 μg of COL2A1-luciferase construct, 6 μl of PLUS reagent and 92 μl of serum-free DMEM/F12 were mixed and incubated for 15 min at room temperature. LipofectAMINE+ reagent (4 μl) in 100 μl of serum-free medium was then added to each reaction mixture and incubation was continued for an additional 30 min at room temperature. Finally, the transfection mixture was combined with 800 μl of serum-free medium and the lipid-nucleic acid complex was transferred to the washed cell monolayer in each well. After incubation for 4 h at 37° C., the transfection mix was diluted with an equal volume of DMEM/F12 containing 2% Nutridoma-SP, and incubation continued for 18 h in the absence or presence of IL-1β. […] Cell lysates were prepared by extraction with 200 μl of Reporter Lysis Buffer (Promega) and the protein content was determined using the Coomassie Plus Protein Assay Reagent (PIERCE). Luciferase activities were determined by chemiluminescence assay using the Autolumat LB953 luminometer (EG&G Berthold, Oak Ridge, Tenn.), normalized to the amount of protein. Each data point was calculated as the mean±standard deviation for three independently transfected cultures from one representative of at least three experiments. […]
To localize the responses to IL-1β and ESE-1 in the COL2A1 promoter, we made several 5′-deletions of the −577/+127 bp promoter construct, which we had previously determined to be responsive to IL-1β.

In experiment [2] the test system is ESE-1. As to the kind of experiment: ESE-1 mRNA RT-PCR in RA synovial fibroblasts. The settings on record: 4th passage RA synovial fibroblasts. The procedure:
Tissues from patients with rheumatoid arthritis (RA) were obtained as discarded materials from total joint replacement surgery or synovectomy. RA synovial tissue samples were cultured for the generation of adherent synovial fibroblasts. Dispersed synovial tissues were prepared by a previously published method (Goldring, S. R., et al. 1983. The synovial-like membrane at the bone-cement interface in loose total hip replacements and its proposed role in bone lysis. J Bone Joint Surg 65:575-84). Cells were subjected to 2-4 passages and stimulated with IL-1β (R&D Systems) at 100 pg/ml or with TNF-α (R&D Systems) at 5 ng/ml.
(§1) cDNAs were generated from 1 μg of total RNA using Ready-To-Go™ You-prime First-Strand Beads (Amersham Pharmacia Biotech Inc). RT-PCR amplifications of 0.1 μg cDNA were carried out using a MJResearch thermal cycler PTC-100 as follows: 5 min at 94° C., 20-37 cycles of 30 sec at 94° C., 30 sec at 56° C., and 30 sec at 72° C., followed by 5 min at 72° C. (Oettgen, P., et al. 2000, J Biol Chem 275:1216-25). The sequences of the human ESE-1 primers and the primers for human GAPDH were as described (Oettgen, P., et al. 1999, J Biol Chem 274:29439-52).
The synovium in RA is comprised of heterogeneous cell populations including monocyte/macrophages, lymphocytes and synovial fibroblasts. To evaluate whether ESE-1 expression in synovial fibroblasts is regulated by proinflammatory cytokines, 4th passage synovial fibroblasts isolated from RA synovium were stimulated for different times with IL-1β in the absence or presence of indomethacin. […] They also indicate that cytokine-induced prostaglandins may modulate steady state ESE-1 mRNA levels. […] We, therefore, focused our attention in further studies on IL-1β.

In experiment [3] the test system is ESE-1. The experiment can be described thus: ESE-1 mRNA RT-PCR in immortalized chondrocytes T/C28a2, C28/I2, C20/A4. The conditions noted are these: T/C28a2, C28/I2 and C20/A4 chondrocytes; 24 hours. The protocol: U-87 Mg and U-138 Mg (human glioma), THP-1 (human monocytic), RAW 264.7 (murine monocytic), LB-12 (human osteoblast-like large T antigen transformed bone marrow stromal cells), and human chondrocytes were grown and treated with cytokines as described (Apperley, J., et al. 1990. J Bone Mineral Res. 5:S93; Goldring, M. B., et al. 1994. J Clin Invest 94:2307-16; Goldring, S. R., et al. 1983. J Bone Joint Surg 65:575-84; Libermann, T. A., et al. 1987. Embo J. 6:1627-1632).
as §1
To test the hypothesis that ESE-1 is a mediator of cytokine responses in non-epithelial cell types, we analyzed ESE-1 expression in response to a variety of cytokines in several connective tissue cell types. Immortalized human chondrocytes, T/C28a2, C28/I2, and C20/A4 (Goldring, M. B., et al. 1994, J Clin Invest 94:2307-16), were stimulated with IL-1β, TNF-α and IFN-γ for 24 hours. […] The kinetics of ESE-1 induction was explored in a time course experiment with T/ C28a2 chondrocytes.

The test system of experiment [4] is COL2A1. As to the kind of experiment: COL2A1 mRNA time course in C-28/I2 chondrocytes. The conditions noted are these: by 2 h.

Consider “IL-1β: interleukin-1 beta, proinflammatory cytokine”, for which the “inhibition of COL2A1 promoter constructs” value in experiment [1] is “at least 50%”. Moreover, the “ESE-1 mRNA expression, agent alone” value in experiment [2] was “strongly induced transient ESE-1 expression”. Moreover, in experiment [3], the ESE-1 expression entry is listed as “induced ESE-1 expression in all chondrocyte cell lines”. Moreover, in experiment [4], the “COL2A1 mRNA levels” value is reported as “strongly inhibited”.
